Patent US8748451B2, “HDAC inhibitors and therapeutic methods of using same” (The Board of Trustees of the University of Illinois, priority 2009, dated 2014)
Like-named read-outs stand apart in the source and are kept apart here. Blank lines part the entries; values can stand above or below the compound they belong to.

Experiments:
Aβ-infused mice = test: Contextual fear conditioning after Aβ42 infusion; assay type: in vivo
Method: In this test, mice were infused with Aβ42 via cannulas implanted into dorsal hippocampus 15 minutes prior to training. […] Fear learning was assessed 24 hours later.

mice = test: Visible platform test; assay type: in vivo; details: injected twice a day for two days
murine Treg = test: Murine Treg suppression; assay type: cell-based
[1] = test system: collagen-induced arthritis model in DBA1/J mice; test: Collagen-induced arthritis model; assay type: in vivo; details: 50 and 100 mg/kg IP
Source text: In this test, DBA1/J mice (male, 7-8 weeks) were used, with 8 animals per group. Systemic arthritis was induced with bovine collagen type II and CFA, plus an IFA booster injection on day 21.
The results are summarized in FIG. 3, containing graphs of Average Arthritic Score vs. Days of Treatment.

primary cortical neurons = test: HCA oxidative stress neuroprotection assay (MTT viability)
Human HDAC6 = Human HDAC6 (Homo sapiens (Human), UniProt Q9UBN7); test: HDAC6 inhibition assay (fluorogenic p53 peptide substrate); assay type: biochemical; details: for IC50: mean of two experiments (TSA: 9), 10-dose, 3-fold serial dilution from 30 μM, read-out: HDAC6 IC50 (μM) ± SD
Human HDAC1 = Human HDAC1 (Homo sapiens (Human), UniProt Q13547); test: HDAC1 inhibition assay (fluorogenic p53 peptide substrate); assay type: biochemical; details: read-out: HDAC1 IC50 (μM) ± SD
HDAC5 = HDAC5 (Homo sapiens (Human), UniProt Q9UQL6); test: biochemical; details: mean of two experiments; read-out: HDAC5 IC50 (μM) ± SD
mice with colitis = test: Colitis in mice; assay type: in vivo; details: treatment begun once colitis had developed
Source text: Studies of autoimmunity also are undertaken. In this case, interruption of existing disease is especially important and HDAC6 targeting can be efficacious without any requirement for additional therapy (in contrast to a need for brief low-dose RPM in the very aggressive, fully MHC-mismatched transplant models). […] These studies are extended by assessing whether deletion of HDAC6 in Tregs (Foxp3/Cre) vs. T cells (CD4=Cre) vs. DC (CD11c-Cre) differentially affect the development and severity of colitis. Similarly, control of colitis is assessed by inducing HDAC6 deletion at varying intervals after the onset of colitis with tamoxifen-regulated Cre.

HDAC2 = HDAC2 (Homo sapiens (Human), UniProt Q92769); test: biochemical
HDAC7 = HDAC7 (Homo sapiens (Human), UniProt Q8WUI4); test: HDAC7 inhibition assay
[2] = mean of two experiments (TSA: 9), 10-dose, 3-fold serial dilution from 30 μM

Human HDAC6, sequence (Q9UBN7 whole entry): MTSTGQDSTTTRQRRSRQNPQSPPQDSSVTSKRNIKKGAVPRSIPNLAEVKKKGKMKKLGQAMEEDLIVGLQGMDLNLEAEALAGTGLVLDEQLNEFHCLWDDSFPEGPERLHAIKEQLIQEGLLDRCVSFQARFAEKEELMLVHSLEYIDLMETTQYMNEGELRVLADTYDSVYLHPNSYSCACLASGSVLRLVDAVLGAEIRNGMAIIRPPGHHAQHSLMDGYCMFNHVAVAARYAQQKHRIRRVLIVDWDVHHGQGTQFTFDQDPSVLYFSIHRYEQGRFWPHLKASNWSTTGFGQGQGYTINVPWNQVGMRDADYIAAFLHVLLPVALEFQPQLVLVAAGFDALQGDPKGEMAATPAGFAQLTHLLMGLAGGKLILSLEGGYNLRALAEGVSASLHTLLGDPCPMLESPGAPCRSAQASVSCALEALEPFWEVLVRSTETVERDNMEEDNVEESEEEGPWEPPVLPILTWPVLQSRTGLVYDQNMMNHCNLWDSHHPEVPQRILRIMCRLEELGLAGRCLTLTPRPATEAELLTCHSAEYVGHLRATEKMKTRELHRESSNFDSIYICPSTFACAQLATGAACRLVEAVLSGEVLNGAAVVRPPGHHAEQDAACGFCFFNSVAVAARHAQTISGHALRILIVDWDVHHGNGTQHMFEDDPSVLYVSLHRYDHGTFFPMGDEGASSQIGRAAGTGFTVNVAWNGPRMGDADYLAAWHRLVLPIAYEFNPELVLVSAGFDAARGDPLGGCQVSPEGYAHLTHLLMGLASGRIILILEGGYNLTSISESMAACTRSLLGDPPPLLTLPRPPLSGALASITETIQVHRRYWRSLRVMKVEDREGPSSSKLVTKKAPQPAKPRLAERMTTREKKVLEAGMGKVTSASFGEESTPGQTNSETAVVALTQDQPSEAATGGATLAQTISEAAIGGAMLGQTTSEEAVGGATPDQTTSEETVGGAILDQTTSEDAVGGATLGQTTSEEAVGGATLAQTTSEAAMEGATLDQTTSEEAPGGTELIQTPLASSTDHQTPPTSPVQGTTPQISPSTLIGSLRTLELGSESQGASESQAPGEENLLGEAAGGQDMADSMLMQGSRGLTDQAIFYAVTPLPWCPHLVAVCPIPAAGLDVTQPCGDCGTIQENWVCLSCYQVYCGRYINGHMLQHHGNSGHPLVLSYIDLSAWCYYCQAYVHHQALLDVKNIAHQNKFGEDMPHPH
Human HDAC1, sequence (Q13547 whole entry): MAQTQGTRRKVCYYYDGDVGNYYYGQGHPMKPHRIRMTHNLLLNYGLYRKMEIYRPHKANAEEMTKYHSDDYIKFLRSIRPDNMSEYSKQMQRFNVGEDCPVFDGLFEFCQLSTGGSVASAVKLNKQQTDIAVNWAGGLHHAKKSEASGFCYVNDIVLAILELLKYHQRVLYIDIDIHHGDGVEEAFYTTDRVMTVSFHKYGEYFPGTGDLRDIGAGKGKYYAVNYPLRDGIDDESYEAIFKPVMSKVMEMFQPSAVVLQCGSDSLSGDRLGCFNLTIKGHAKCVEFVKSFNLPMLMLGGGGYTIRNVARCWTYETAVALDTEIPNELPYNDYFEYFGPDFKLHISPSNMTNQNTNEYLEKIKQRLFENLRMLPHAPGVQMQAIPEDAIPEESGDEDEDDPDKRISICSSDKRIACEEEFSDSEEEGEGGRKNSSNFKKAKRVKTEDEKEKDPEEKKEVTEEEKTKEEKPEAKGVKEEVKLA
HDAC7, sequence (Q8WUI4 whole entry): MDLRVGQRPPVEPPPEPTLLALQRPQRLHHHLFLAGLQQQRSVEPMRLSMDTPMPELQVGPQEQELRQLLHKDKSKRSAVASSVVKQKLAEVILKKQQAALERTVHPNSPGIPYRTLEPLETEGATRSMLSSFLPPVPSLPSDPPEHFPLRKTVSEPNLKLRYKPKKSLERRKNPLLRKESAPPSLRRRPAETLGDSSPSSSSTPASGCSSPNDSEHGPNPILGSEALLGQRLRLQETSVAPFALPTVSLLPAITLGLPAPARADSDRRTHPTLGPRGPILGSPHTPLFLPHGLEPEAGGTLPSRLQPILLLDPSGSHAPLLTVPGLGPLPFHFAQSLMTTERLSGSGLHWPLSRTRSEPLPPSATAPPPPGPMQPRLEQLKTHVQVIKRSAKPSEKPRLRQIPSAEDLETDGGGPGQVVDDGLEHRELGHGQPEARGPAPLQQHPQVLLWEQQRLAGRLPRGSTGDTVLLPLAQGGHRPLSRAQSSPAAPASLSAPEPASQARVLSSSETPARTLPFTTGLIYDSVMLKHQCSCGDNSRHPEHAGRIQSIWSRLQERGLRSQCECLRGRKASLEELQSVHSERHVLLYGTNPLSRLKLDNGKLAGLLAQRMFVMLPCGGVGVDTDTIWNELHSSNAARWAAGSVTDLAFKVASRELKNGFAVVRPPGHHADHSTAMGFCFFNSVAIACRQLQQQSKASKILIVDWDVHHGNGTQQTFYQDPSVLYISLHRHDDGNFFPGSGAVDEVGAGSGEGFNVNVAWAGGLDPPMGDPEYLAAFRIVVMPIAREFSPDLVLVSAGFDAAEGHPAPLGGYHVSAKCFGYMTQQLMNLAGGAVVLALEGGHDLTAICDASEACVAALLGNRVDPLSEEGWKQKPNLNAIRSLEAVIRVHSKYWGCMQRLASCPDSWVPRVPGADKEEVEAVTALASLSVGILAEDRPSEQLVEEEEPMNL
HDAC2, sequence (Q92769 whole entry): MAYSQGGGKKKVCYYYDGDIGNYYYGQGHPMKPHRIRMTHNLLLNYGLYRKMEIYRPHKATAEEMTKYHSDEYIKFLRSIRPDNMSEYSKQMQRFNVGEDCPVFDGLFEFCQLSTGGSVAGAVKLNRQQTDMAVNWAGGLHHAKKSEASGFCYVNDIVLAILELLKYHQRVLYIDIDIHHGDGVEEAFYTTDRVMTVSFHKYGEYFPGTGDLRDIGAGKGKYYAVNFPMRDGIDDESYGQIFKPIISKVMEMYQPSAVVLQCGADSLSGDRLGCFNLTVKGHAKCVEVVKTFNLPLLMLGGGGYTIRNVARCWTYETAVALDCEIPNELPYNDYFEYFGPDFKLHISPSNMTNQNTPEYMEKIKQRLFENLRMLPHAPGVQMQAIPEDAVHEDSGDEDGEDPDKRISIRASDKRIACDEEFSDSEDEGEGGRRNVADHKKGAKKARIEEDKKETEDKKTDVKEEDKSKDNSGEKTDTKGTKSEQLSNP
HDAC5, sequence (Q9UQL6 whole entry): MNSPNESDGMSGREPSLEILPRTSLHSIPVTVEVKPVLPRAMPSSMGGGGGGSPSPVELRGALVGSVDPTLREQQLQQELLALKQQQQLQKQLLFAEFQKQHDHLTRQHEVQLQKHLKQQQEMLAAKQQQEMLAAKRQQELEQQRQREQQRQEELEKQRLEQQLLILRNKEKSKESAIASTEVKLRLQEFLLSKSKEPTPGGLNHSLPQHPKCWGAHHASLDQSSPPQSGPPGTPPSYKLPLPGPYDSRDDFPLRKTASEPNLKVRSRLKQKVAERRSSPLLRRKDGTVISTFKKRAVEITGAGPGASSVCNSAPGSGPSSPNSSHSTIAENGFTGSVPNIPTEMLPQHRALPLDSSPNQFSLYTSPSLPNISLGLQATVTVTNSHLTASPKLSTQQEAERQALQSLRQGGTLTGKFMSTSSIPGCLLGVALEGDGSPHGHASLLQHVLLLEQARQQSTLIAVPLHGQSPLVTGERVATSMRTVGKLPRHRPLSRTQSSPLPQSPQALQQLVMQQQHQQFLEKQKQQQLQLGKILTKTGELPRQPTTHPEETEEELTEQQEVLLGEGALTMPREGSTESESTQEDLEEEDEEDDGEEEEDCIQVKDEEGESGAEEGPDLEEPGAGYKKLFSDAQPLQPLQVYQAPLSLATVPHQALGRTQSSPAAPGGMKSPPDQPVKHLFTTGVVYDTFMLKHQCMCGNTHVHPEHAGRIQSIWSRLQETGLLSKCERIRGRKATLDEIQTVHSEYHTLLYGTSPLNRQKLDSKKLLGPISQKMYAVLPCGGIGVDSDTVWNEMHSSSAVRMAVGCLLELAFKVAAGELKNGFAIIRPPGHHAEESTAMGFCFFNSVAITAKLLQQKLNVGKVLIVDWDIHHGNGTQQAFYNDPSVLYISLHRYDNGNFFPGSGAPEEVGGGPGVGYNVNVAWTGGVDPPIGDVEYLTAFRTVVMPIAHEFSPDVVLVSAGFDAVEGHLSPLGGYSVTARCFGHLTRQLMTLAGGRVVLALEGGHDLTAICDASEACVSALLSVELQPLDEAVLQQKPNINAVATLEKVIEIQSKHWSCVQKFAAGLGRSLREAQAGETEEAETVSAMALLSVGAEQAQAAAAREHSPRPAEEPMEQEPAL

SMILES: CN1CCc2c(c3ccccc3n2Cc2ccc(C(=O)NO)cc2)C1 [Compound 6, N-Hydroxy-4-(2-methyl-1,2,3,4-tetrahydro-pyrido[4,3-b]indol-5-ylmethyl)benzamide]
signs of overt toxicity (food and liquid intake, weight loss, locomotion, exploratory behavior) (Aβ-infused mice; during the memory experiments): no signs of overt toxicity | freezing response (contextual fear conditioning) (Aβ-infused mice; vehicle-infused mice, 25 mg/kg ip): no effect | effects on motor, sensorial, or motivational skills (mice): no effects | concentration enhancing murine Treg suppression (murine Treg): greater than 100 μM | body weight [1]: No loss of body weight | toxicity to neurons when tested alone (primary cortical neurons; alone (no HCA), all concentrations shown): no toxicity | concentration at which dose-dependent protection against HCA-induced neuronal cell death starts (primary cortical neurons; with HCA 5 mM, 24 h): 5 µM

SMILES: CN1CCc2c(n(Cc3ccc(C(=O)NO)cc3)c3ccccc23)C1 [Compound 7, N-Hydroxy-4-(2-methyl-1,2,3,4-tetrahydro-b-carbolin-9-ylmethyl)benzamide]
selectivity for HDAC6 against HDAC1 (Human HDAC6; HDAC1 IC50/HDAC6 IC50): 3700 fold

IC50 (Human HDAC1; [2]): > 30 µM | IC50 (Human HDAC6): 1.59 ± 0.08 µM
SMILES: O=C(CCn1c2ccccc2c2ccccc21)NO [Compound 8, 3-Carbazol-9-yl-N-hydroxy-propionamide]

SMILES: O=C(CCCCn1c2ccccc2c2ccccc21)NO [Compound 9, 5-Carbazol-9-yl-pentanoic acid hydroxyamide]
IC50 (Human HDAC1): 12.8 ± 0.7 µM | IC50 (Human HDAC6): 2.63 ± 0.04 µM

SMILES: O=C(CCCCCCn1c2ccccc2c2ccccc21)NO [Compound 10, 7-Carbazol-9-ylheptanoic acid hydroxyamide]
IC50 (Human HDAC1): 0.204 ± 0.087 µM | IC50 (Human HDAC6): 0.006 ± 0.002 µM

IC50 (Human HDAC1; [2]): > 30 µM | IC50 (Human HDAC6): > 30 µM
SMILES: O=C(NO)n1c2ccccc2c2ccccc21 [Compound 13, Carbazole-9-carboxylic acid hydroxyamide]

SMILES: O=C(CCCCCCC(=O)Nc1ccc([C@H]2O[C@@H](CSc3nc(-c4ccccc4)c(-c4ccccc4)o3)C[C@@H](c3ccc(CO)cc3)O2)cc1)NO [Tubacin]
IC50 (HDAC5): 3.35 ± 0.03 µM | rescue of mice with established colitis (mice with colitis): able to rescue mice | IC50 (HDAC2): 6.27 ± 0.29 µM | IC50 (HDAC7): 9.7 ± 1.8 µM
